Data: article PMC10065276, “Enhanced therapeutic window for antimicrobial Pept-ins by investigating their structure-activity relationship” (PLOS ONE, 2023)
Residues, ends and D or L forms follow the SMILES beside them.

The compounds below were run on E. coli BL21. Settings: BL21, 17 h.
Method in brief: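 EUCAST broth microdilution in Mueller-Hinton medium; end-exponential culture diluted to 0.005 McF (~1.5x10^6 CFU/mL) before 1:1 mixing with two-fold peptide dilutions (0.75 to 100 μg/mL), triplicates.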

Row | Structure (SMILES) | BL21 MIC
1 | CC[C@H](C)[C@H](NC(=O)CNC(=O)[C@H](CC(C)C)NC(=O)[C@H](CCCNC(=N)N)NC(=O)[C@@H]1CCCN1C(=O)[C@H](CCCNC(=N)N)NC(=O)[C@H](CCCNC(=N)N)NC(=O)[C@H](CC(C)C)NC(=O)[C@H](C)NC(=O)[C@@H](NC(=O)[C@H](C)NC(=O)[C@@H](NC(=O)CNC(=O)[C@H](CC(C)C)NC(=O)[C@@H](N)CCCNC(=N)N)[C@@H](C)CC)C(C)C)C(=O)N[C@@H](C)C(=O)N[C@H](C(=O)N[C@@H](C)C(=O)N[C@@H](C)C(=O)N[C@@H](CCCNC(=N)N)C(=O)N[C@@H](CCCNC(=N)N)C(=O)O)C(C)C [Peptide P33-L19A] (H-RLGIAVALRRPRLGIAVAARR-OH) | 6.25 µg/mL
2 | CC(C)C[C@H](NC(=O)CNC(=O)[C@H](CCCNC(=N)N)NC(=O)[C@@H]1CCCN1C(=O)[C@H](CCCNC(=N)N)NC(=O)[C@H](CCCNC(=N)N)NC(=O)[C@H](C)NC(=O)[C@H](CC(C)C)NC(=O)[C@H](C)NC(=O)[C@H](CC(C)C)NC(=O)CNC(=O)[C@H](CC(C)C)NC(=O)CNC(=O)[C@@H](N)CCCNC(=N)N)C(=O)NCC(=O)N[C@@H](CC(C)C)C(=O)N[C@@H](C)C(=O)N[C@@H](CC(C)C)C(=O)N[C@H](C(=O)N[C@@H](CCCNC(=N)N)C(=O)N[C@@H](CCCNC(=N)N)C(=O)O)C(C)C [Peptide P2_V8A] (H-RGLGLALARRPRGLGLALVRR-OH) | 25.00 µg/mL
3 | CC[C@H](C)[C@H](NC(=O)CNC(=O)[C@H](CC(C)C)NC(=O)[C@H](CCCNC(=N)N)NC(=O)[C@@H]1CCCN1C(=O)[C@H](CCCNC(=N)N)NC(=O)[C@H](CCCNC(=N)N)NC(=O)[C@H](CC(C)C)NC(=O)[C@H](C)NC(=O)[C@@H](NC(=O)[C@H](C)NC(=O)[C@@H](NC(=O)CNC(=O)[C@H](CC(C)C)NC(=O)[C@H](C)N)[C@@H](C)CC)C(C)C)C(=O)N[C@@H](C)C(=O)N[C@H](C(=O)N[C@@H](C)C(=O)N[C@@H](CC(C)C)C(=O)N[C@@H](C)C(=O)N[C@@H](CCCNC(=N)N)C(=O)O)C(C)C [Peptide P33_4R_2] (H-ALGIAVALRRPRLGIAVALAR-OH) | 25.00 µg/mL
4 | CC(C)C[C@H](NC(=O)CNC(=O)[C@H](CCCNC(=N)N)NC(=O)[C@@H]1CCCN1C(=O)[C@H](CCCNC(=N)N)NC(=O)[C@H](CCCNC(=N)N)NC(=O)[C@@H](NC(=O)[C@H](CC(C)C)NC(=O)[C@H](C)NC(=O)[C@H](CC(C)C)NC(=O)CNC(=O)[C@H](CC(C)C)NC(=O)CNC(=O)[C@@H](N)CCCNC(=N)N)[C@@H](C)O)C(=O)NCC(=O)N[C@@H](CC(C)C)C(=O)N[C@@H](C)C(=O)N[C@@H](CC(C)C)C(=O)N[C@H](C(=O)N[C@@H](CCCNC(=N)N)C(=O)N[C@@H](CCCNC(=N)N)C(=O)O)[C@@H](C)O [V7T (P2)] (H-RGLGLALTRRPRGLGLALTRR-OH) | 50.00 µg/mL
5 | CC[C@H](C)[C@H](NC(=O)CNC(=O)[C@H](CC(C)C)NC(=O)[C@H](C)NC(=O)[C@@H]1CCCN1C(=O)[C@H](C)NC(=O)[C@H](CCCNC(=N)N)NC(=O)[C@H](CC(C)C)NC(=O)[C@H](C)NC(=O)[C@@H](NC(=O)[C@H](C)NC(=O)[C@@H](NC(=O)CNC(=O)[C@H](CC(C)C)NC(=O)[C@@H](N)CCCNC(=N)N)[C@@H](C)CC)C(C)C)C(=O)N[C@@H](C)C(=O)N[C@H](C(=O)N[C@@H](C)C(=O)N[C@@H](CC(C)C)C(=O)N[C@@H](C)C(=O)N[C@@H](CCCNC(=N)N)C(=O)O)C(C)C [Peptide P33_3R_4] (H-RLGIAVALRAPALGIAVALAR-OH) | 50.00 µg/mL
6 | CC(C)C[C@H](NC(=O)CNC(=O)[C@H](CCCNC(=N)N)NC(=O)[C@@H]1CCCN1C(=O)[C@H](CCCNC(=N)N)NC(=O)[C@H](CCCNC(=N)N)NC(=O)[C@@H](NC(=O)[C@H](CC(C)C)NC(=O)[C@H](C)NC(=O)[C@H](CC(C)C)NC(=O)CNC(=O)[C@H](CC(C)C)NC(=O)CNC(=O)[C@@H](N)CCCNC(=N)N)C(C)C)C(=O)NCC(=O)N[C@@H](CC(C)C)C(=O)N[C@@H](Cc1ccc(O)cc1)C(=O)N[C@@H](CC(C)C)C(=O)N[C@H](C(=O)N[C@@H](CCCNC(=N)N)C(=O)N[C@@H](CCCNC(=N)N)C(=O)O)C(C)C [Peptide P2_A5Y] (H-RGLGLALVRRPRGLGLYLVRR-OH) | 6.25 µg/mL
7 | CC[C@H](C)[C@H](NC(=O)[C@H](CC(C)C)NC(=O)CNC(=O)[C@H](CC(C)C)NC(=O)CNC(=O)[C@H](CCCNC(=N)N)NC(=O)[C@@H]1CCCN1C(=O)[C@H](CCCNC(=N)N)NC(=O)[C@H](CCCNC(=N)N)NC(=O)[C@@H](NC(=O)[C@H](CC(C)C)NC(=O)[C@H](C)NC(=O)[C@H](CC(C)C)NC(=O)CNC(=O)[C@H](CC(C)C)NC(=O)CNC(=O)[C@@H](N)CCCNC(=N)N)C(C)C)C(=O)N[C@@H](CC(C)C)C(=O)N[C@H](C(=O)N[C@@H](CCCNC(=N)N)C(=O)N[C@@H](CCCNC(=N)N)C(=O)O)C(C)C [Peptide P2_A5I] (H-RGLGLALVRRPRGLGLILVRR-OH) | 12.50 µg/mL
8 | CC[C@H](C)[C@H](NC(=O)CNC(=O)[C@H](CC(C)C)NC(=O)[C@H](CCCNC(=N)N)NC(=O)[C@@H]1CCCN1C(=O)[C@H](CCCNC(=N)N)NC(=O)[C@H](CCCNC(=N)N)NC(=O)[C@H](CC(C)C)NC(=O)[C@H](C)NC(=O)[C@@H](NC(=O)[C@H](C)NC(=O)[C@@H](NC(=O)CNC(=O)[C@H](CC(C)C)NC(=O)[C@@H](N)CCCNC(=N)N)[C@@H](C)CC)C(C)C)C(=O)N[C@@H](C)C(=O)N[C@@H](C)C(=O)N[C@@H](C)C(=O)N[C@@H](CC(C)C)C(=O)N[C@@H](CCCNC(=N)N)C(=O)N[C@@H](CCCNC(=N)N)C(=O)O [Peptide P33-V17A] (H-RLGIAVALRRPRLGIAAALRR-OH) | 6.25 µg/mL
9 | CC[C@H](C)[C@H](NC(=O)CNC(=O)[C@H](CC(C)C)NC(=O)[C@H](CCCNC(=N)N)NC(=O)[C@@H]1CCCN1C(=O)[C@H](CC(C)C)NC(=O)[C@H](C)NC(=O)[C@@H](NC(=O)[C@H](C)NC(=O)[C@@H](NC(=O)CNC(=O)[C@H](CC(C)C)NC(=O)[C@@H](N)CCCNC(=N)N)[C@@H](C)CC)C(C)C)C(=O)N[C@@H](C)C(=O)N[C@H](C(=O)N[C@@H](C)C(=O)N[C@@H](CC(C)C)C(=O)N[C@@H](CCCNC(=N)N)C(=O)O)C(C)C [Peptide P33_3R_1] (H-RLGIAVALPRLGIAVALR-OH) | 12.5 µg/mL
10 | CC[C@H](C)[C@H](NC(=O)CNC(=O)[C@H](CC(C)C)NC(=O)[C@H](CCCNC(=N)N)NC(=O)[C@@H]1CCCN1C(=O)[C@H](CCCNC(=N)N)NC(=O)[C@H](C)NC(=O)[C@H](CC(C)C)NC(=O)[C@H](C)NC(=O)[C@@H](NC(=O)[C@H](C)NC(=O)[C@@H](NC(=O)CNC(=O)[C@H](CC(C)C)NC(=O)[C@@H](N)CCCNC(=N)N)[C@@H](C)CC)C(C)C)C(=O)N[C@@H](C)C(=O)N[C@H](C(=O)N[C@@H](C)C(=O)N[C@@H](CC(C)C)C(=O)N[C@@H](C)C(=O)N[C@@H](CCCNC(=N)N)C(=O)O)C(C)C [Peptide P33_4R_3] (H-RLGIAVALARPRLGIAVALAR-OH) | 50.00 µg/mL
11 | CC[C@H](C)[C@H](NC(=O)CNC(=O)[C@H](CC(C)C)NC(=O)[C@H](C)NC(=O)[C@@H]1CCCN1C(=O)[C@H](CCCNC(=N)N)NC(=O)[C@H](CCCNC(=N)N)NC(=O)[C@H](CC(C)C)NC(=O)[C@H](C)NC(=O)[C@@H](NC(=O)[C@H](C)NC(=O)[C@@H](NC(=O)CNC(=O)[C@H](CC(C)C)NC(=O)[C@@H](N)CCCNC(=N)N)[C@@H](C)CC)C(C)C)C(=O)N[C@@H](C)C(=O)N[C@H](C(=O)N[C@@H](C)C(=O)N[C@@H](CC(C)C)C(=O)N[C@@H](C)C(=O)N[C@@H](CCCNC(=N)N)C(=O)O)C(C)C [Peptide P33_4R_5] (H-RLGIAVALRRPALGIAVALAR-OH) | 12.50 µg/mL
12 | CC(C)C[C@H](NC(=O)CNC(=O)[C@H](CCCNC(=N)N)NC(=O)[C@H](Cc1c[nH]c2ccccc12)NC(=O)[C@H](C)NC(=O)[C@H](CCCNC(=N)N)NC(=O)[C@@H](NC(=O)[C@H](CC(C)C)NC(=O)[C@H](C)NC(=O)[C@H](CC(C)C)NC(=O)CNC(=O)[C@H](CC(C)C)NC(=O)CNC(=O)[C@@H](N)CCCNC(=N)N)C(C)C)C(=O)NCC(=O)N[C@@H](CC(C)C)C(=O)N[C@@H](C)C(=O)N[C@@H](CC(C)C)C(=O)N[C@H](C(=O)N[C@@H](C)C(=O)N[C@@H](CCCNC(=N)N)C(=O)O)C(C)C [Peptide P2_4R_W] (H-RGLGLALVRAWRGLGLALVAR-OH) | 12.50 µg/mL
13 | CC[C@H](C)[C@H](NC(=O)CNC(=O)[C@H](CC(C)C)NC(=O)[C@@H]1CCCN1C(=O)[C@H](CCCNC(=N)N)NC(=O)[C@H](CC(C)C)NC(=O)[C@H](C)NC(=O)[C@@H](NC(=O)[C@H](C)NC(=O)[C@@H](NC(=O)CNC(=O)[C@H](CC(C)C)NC(=O)[C@@H](N)CCCNC(=N)N)[C@@H](C)CC)C(C)C)C(=O)N[C@@H](C)C(=O)N[C@H](C(=O)N[C@@H](C)C(=O)N[C@@H](CC(C)C)C(=O)N[C@@H](CCCNC(=N)N)C(=O)O)C(C)C [Peptide P33_3R_2] (H-RLGIAVALRPLGIAVALR-OH) | 25.00 µg/mL
14 | CC[C@H](C)[C@H](NC(=O)CNC(=O)[C@H](CC(C)C)NC(=O)[C@H](CCCNC(=N)N)NC(=O)[C@@H]1CCCN1C(=O)[C@H](CCCNC(=N)N)NC(=O)[C@H](CCCNC(=N)N)NC(=O)[C@H](CC(C)C)NC(=O)[C@H](C)NC(=O)[C@@H](NC(=O)[C@H](C)NC(=O)[C@@H](NC(=O)[C@H](C)NC(=O)[C@H](CC(C)C)NC(=O)[C@@H](N)CCCNC(=N)N)[C@@H](C)CC)C(C)C)C(=O)N[C@@H](C)C(=O)N[C@H](C(=O)N[C@@H](C)C(=O)N[C@@H](CC(C)C)C(=O)N[C@@H](CCCNC(=N)N)C(=O)N[C@@H](CCCNC(=N)N)C(=O)O)C(C)C [Peptide P33-G3A] (H-RLAIAVALRRPRLGIAVALRR-OH) | 6.25 µg/mL

Same assay, conditions: S1 Table, gatekeeper modification; broth microdilution, MH medium, 37°C, 17 h

Row | Structure (SMILES) | BL21 MIC
15 | CC(C)C[C@H](NC(=O)CNC(=O)[C@H](CC(N)=O)NC(=O)[C@@H]1CCCN1C(=O)[C@H](CC(N)=O)NC(=O)[C@H](CC(N)=O)NC(=O)[C@@H](NC(=O)[C@H](CC(C)C)NC(=O)[C@H](C)NC(=O)[C@H](CC(C)C)NC(=O)CNC(=O)[C@H](CC(C)C)NC(=O)CNC(=O)[C@@H](N)CC(N)=O)C(C)C)C(=O)NCC(=O)N[C@@H](CC(C)C)C(=O)N[C@@H](C)C(=O)N[C@@H](CC(C)C)C(=O)N[C@H](C(=O)N[C@@H](CC(N)=O)C(=O)N[C@@H](CC(N)=O)C(=O)O)C(C)C [Peptide P2_N] (H-NGLGLALVNNPNGLGLALVNN-OH) | >100.00 µg/mL
